Experimental data from ChEMBL document CHEMBL6114959, “Modeling, synthesis and cell-based evaluation of pyridine-substituted analogs of CD3254 and fluorinated analogs of CBt-PMN as novel therapeutics” (Bioorg Med Chem, 2025).

Key:
[1] = (§1) Cytotoxicity in Saccharomyces cerevisiae D7 incubated for 3 hrs; type: toxicity, organism-based; details: Saccharomyces cerevisiae D7 cells
[2] = Mutagenicity in Saccharomyces cerevisiae D7 incubated for 3 hrs; type: toxicity
Saccharomyces cerevisiae = test: as §1; type: toxicity, organism-based; details: in vivo, 3 h

Row | SMILES | CC50 at 3 h [1] | Activity [2] | Activity (Saccharomyces cerevisiae)
1 | Cc1cnc(/C=C/C(=O)O)cc1-c1cc2c(cc1C)C(C)(C)CCC2(C)C | 228 µM | Non-toxic | –
2 | Cc1cc2c(cc1-c1cc(/C=C/C(=O)O)cnc1C)C(C)(C)CCC2(C)C | 825 µM | Non-toxic | –
3 | Cc1cc2c(cc1-n1c(C(F)(F)F)nc3cc(C(=O)O)ccc31)C(C)(C)CCC2(C)C | 193 µM | Non-toxic | –
4 | C=C(c1ccc(C(=O)O)cc1)c1cc2c(cc1C)C(C)(C)CCC2(C)C [BEXAROTENE] | – | Non-toxic | Non-toxic
5 | Cc1cc2c(cc1-c1cncc(/C=C/C(=O)O)c1)C(C)(C)CCC2(C)C | 440 µM | Non-toxic | –
6 | Cc1cc2c(cc1-c1nc(/C=C/C(=O)O)ccc1C)C(C)(C)CCC2(C)C | 228 µM | Non-toxic | –
